Reference: patent US9962333B2, “Timed release of substances to treat ocular disorders” (BOARD OF TRUSTEES OF NORTHERN ILLINOIS UNIVERSITY, priority 2013, dated 2018)
Converted amounts (≈) assume the structure as drawn.

Assay: physchem
Conditions: 37 °C, aqueous with cosolvent or surfactant or cyclodextrin, thermodynamic from solid
Procedure: (a) 50 mg of riboflavin was mixed with different concentrations of HP-β-CD (5, 10, 15, 20, 25, 30 mM)
(b) the mixture was stirred on rotary shaker for 72 hours at 37° C.
(c) after reaching equilibrium, samples were filtered through a 0.2 μm filter and suitably analyzed using UV-vis spectrophotometer.
(b) The mixture was stirred for 72 hrs. on a rotary shaker at 37° C.
(c) After reaching equilibrium, samples were filtered through 0.2 μm membrane filter & analyzed using a spectrophotometer.
(b) The solutions were left to equilibrate for 3 days on a shaker.
(c) After filtration, the solutions were analyzed by UV-vis spectroscopy.
The UV-vis absorption spectrum was obtained for each solution.
The data was used to plot a phase solubility curve for both the cyclodextrine.
50 mg of ofloxacin was added to each sample and then shaken for 72 hrs to attain equilibrium.

solubility at 72 h (Solubility for HPβ CD): 33 mg/mL (≈ 87.8 mM)
solubility at 72 h (Solubility for methyl β CD): 31.1 mg/mL (≈ 82.6 mM)
Structure (SMILES): Cc1cc2nc3c(=O)[nH]c(=O)nc-3n(C[C@H](O)[C@H](O)[C@H](O)CO)c2cc1C [Riboflavin, riboflavin]
